Laboratory results taken from PMC11595689, “Aeruginosin 525 (AER525) from Cyanobacterium Aphanizomenon Sp. (KUCC C2): A New Serine Proteases Inhibitor” (Marine Drugs, 2024).
Entries after “also recorded” stand apart in the source; their conditions may differ.

How the values were obtained:
[1] = target: T1, thrombin (Homo sapiens, UniProt P00734); test: Thrombin inhibition assay; assay type: biochemical
T1 construct: purchased Sigma Aldrich
Experimental: (§1) The enzyme inhibitory activity of fractions and AER525 was tested against trypsin [55], chymotrypsin [56], thrombin [56], elastase, and carboxypeptidase A [56]. For full details on trypsin, chymotrypsin, thrombin, and elastase inhibition assay refer to the work of Overlingė et al.. In the carboxypeptidase A assay, the final concentration of the enzyme was 1.6 µM, N-(4-methoxy-phenyl-azoformyl)-Phe-OH (GLPBIO Technology LLC; Montclair, CA, USA) at a concentration of 0.2 mg mL^−1 served as a substrate, and the carboxypeptidase inhibitor from potato tuber was used at a concentration range of 2.5–150 µg mL^−1. Mixtures containing the sample (10 µL) or inhibitor (10 µL) were preincubated with the enzyme (10 µL) and buffer (160 µL; 50 mM Tris-HCl at pH 7.5) at 25 °C. After 10 min, the substrate (20 µL) was added, and the reaction mixture was incubated for another 10 min at 25 °C. The absorbance of the solutions was measured at 350 nm with the application of a microplate reader (Varioskan Flash, Thermo Fisher Scientific OY, Vantaa, Finland). All enzymes were from Sigma Aldrich (St. Louis, MO, USA); 1% v/v DMSO was used to dissolve fractions at final concentrations of 45 µg mL^−1, while for pure AER525, it was additionally serially diluted to 45, 4.5, 0.45, and 0.045 µg mL^−1. […]

[2] = test system: elastase; test: Elastase inhibition assay; assay type: biochemical; details: highest concentration 45 µg mL^−1
Experimental: as §1

[3] = target: T2, chymotrypsin (Bos taurus, UniProt P00766); test: Chymotrypsin inhibition assay; assay type: biochemical; details: highest concentration 45 µg mL^−1
T2 construct: purchased Sigma Aldrich
Experimental: as §1

[4] = ref [10],[11]; cited from earlier work
Description: (§2) In addition to the nutritional properties of Aphanizomenon, assessed mainly based on the analyses of extracts, there are several studies showing that the cyanobacterium produces metabolites of significant biological activities.

[5] = test system: human cytosolic enzyme which is involved both in tumor progression and phytochemical bioavailability; details: ref [12]; cited from earlier work
Description: as §2

Row | Compound | activity against thrombin (in words) [1] | potency of thrombin inhibition, AER525 compared with dysinosin D (in words) [1] | activity against elastase (in words) [2] | Elastase enzyme inhibition (IC50) ([2]; triplicates) | activity against chymotrypsin (in words) [3] | alleviating depression and anxiety symptoms (in words) [4] | inhibition of the human cytosolic enzyme (in words) [5]
1 | CC(C)C[C@@H](NC(=O)[C@@H](N)CO)C(=O)N1[C@H](C(=O)N[C@H](C=O)CCCNC(=N)N)C[C@@H]2CC[C@@H](O)C[C@@H]21 [AER525] | potent activity; also recorded: strong thrombin-inhibitory activity | comparable potency | no effect; also recorded: No activity | - (not active (inhibition below 10%)) | no effect | – | –
2 | NCCc1ccccc1 [β-phenylethylamine] | – | – | – | – | – | showed effectiveness in alleviating depression and anxiety symptoms | acted as inhibitors
3 | phycocyanobilin | – | – | – | – | – | showed effectiveness in alleviating depression and anxiety symptoms | acted as inhibitors
